# Laboratory results: PubChem BioAssay AID330 (DTP/NCI, 2004)
# Several values for one entry are separate records, joined by “and”; a condition that tells them apart may be missing. Equal values may be shown once. Inconclusive results and toxic doses are left out.
# System: P388 leukemia ip, CD2F1 mice, survival T/C
# Test: NCI In Vivo Anticancer Drug Screen. Data for tumor model P388 Leukemia (intraperitoneal) in CD2F1 (CDF1) mice
# Settings: endpoint: median survival time, higher = longer survival
# Procedure, shortened: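 Mice carrying the transplanted tumor received test compound or vehicle. Survival was recorded in each group, and the value is the treated-group measurement divided by that of the vehicle-treated control group.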
# [1] = dose: 50.0 mg/kg/injection, schedule: Q01DX005 (ip), vehicle: saline with Tween-80
# [2] = dose: 100.0 mg/kg/injection, schedule: Q01DX005 (ip), vehicle: saline with Tween-80
# [3] = dose: 200.0 mg/kg/injection, schedule: Q01DX005 (ip), vehicle: saline with Tween-80
# [4] = dose: 50.0 mg/kg/injection, schedule: Q01DX009 (ip), vehicle: Klucel (hydroxypropylcellulose) (HPC)
# [5] = dose: 100.0 mg/kg/injection, schedule: Q01DX009 (ip), vehicle: Klucel (hydroxypropylcellulose) (HPC)
# [6] = dose: 12.5 mg/kg/injection, schedule: Q01DX009 (ip), vehicle: Klucel (hydroxypropylcellulose) (HPC)
# [7] = dose: 25.0 mg/kg/injection, schedule: Q01DX009 (ip), vehicle: Klucel (hydroxypropylcellulose) (HPC)
# [8] = dose: 25.0 mg/kg/injection, schedule: Q01DX005 (ip), vehicle: saline with Tween-80
# [9] = dose: 50.0 mg/kg/injection, schedule: Q01DX005 (ip), vehicle: saline
# [10] = dose: 100.0 mg/kg/injection, schedule: Q01DX005 (ip), vehicle: saline
# [11] = dose: 200.0 mg/kg/injection, schedule: Q01DX005 (ip), vehicle: saline
# [12] = dose: 100.0 mg/kg/injection, schedule: Q01DX009 (ip), vehicle: saline with Tween-80
# [13] = dose: 200.0 mg/kg/injection, schedule: Q01DX009 (ip), vehicle: saline with Tween-80
# [14] = dose: 100.0 mg/kg/injection, schedule: Q04DX003 (ip), vehicle: saline with Tween-80
# [15] = dose: 200.0 mg/kg/injection, schedule: Q04DX003 (ip), vehicle: saline with Tween-80
# [16] = dose: 60.0 mg/kg/injection, schedule: Q01DX005 (ip), vehicle: saline
smiles,measurement,setting,value
CCCNCCNc1ccc(NCCNCCC)c2c1C(=O)c1ccccc1C2=O,T/C,"dose: 4.0 mg/kg/injection, schedule: Q01DX009 (ip), vehicle: acid diluted with saline",104 % of control
same,T/C,"dose: 8.0 mg/kg/injection, schedule: Q01DX009 (ip), vehicle: acid diluted with saline",112 % of control
same,T/C,"dose: 12.5 mg/kg/injection, schedule: Q01DX009 (ip), vehicle: distilled water + Tween-80",120 % of control
same,T/C,"dose: 16.0 mg/kg/injection, schedule: Q01DX009 (ip), vehicle: acid diluted with saline",120 % of control
same,T/C,"dose: 25.0 mg/kg/injection, schedule: Q01DX009 (ip), vehicle: distilled water + Tween-80",118 % of control
same,T/C,"dose: 32.0 mg/kg/injection, schedule: Q01DX009 (ip), vehicle: acid diluted with saline",112 % of control
same,T/C,"dose: 100.0 mg/kg/injection, schedule: Q01DX009 (ip), vehicle: distilled water + Tween-80",124 % of control
Cc1cc(N)ccc1N=Nc1ccc(N=Nc2ccc(N=Nc3ccc4cc(S(=O)(=O)O)cc(S(=O)(=O)O)c4c3)c(C)c2)c(C)c1,T/C,[1],114 % of control and 122 % of control
same,T/C,[2],115 % of control and 118 % of control and 124 % of control
same,T/C,[3],115 % of control
O=C(NCCCl)Nc1ccnc(=O)[nH]1,T/C,[1],107 % of control
same,T/C,[2],107 % of control
same,T/C,[3],111 % of control
O=C1C(=C2CCCC2)CC/C1=C1/SS/C(=C2/CCC(=C3CCCC3)C2=O)S1,T/C,[4],99 % of control
same,T/C,[5],101 % of control
same,T/C,"dose: 200.0 mg/kg/injection, schedule: Q01DX009 (ip), vehicle: Klucel (hydroxypropylcellulose) (HPC)",100 % of control
O=C(/C=N/O)Nc1ccccc1,T/C,[6],100 % of control and 107 % of control
same,T/C,[7],99 % of control and 100 % of control and 106 % of control
same,T/C,[4],103 % of control and 92 % of control
same,T/C,[5],101 % of control and 109 % of control and 114 % of control
O=C(O)C1CSCN1c1cccc[n+]1[O-] (stereo unspecified),T/C,[8],101 % of control
same,T/C,[1],102 % of control
same,T/C,[2],99 % of control
CCCCCCCCCCN1COC2Cc3ccccc3CC21 (stereo unspecified),T/C,[9],99 % of control
same,T/C,[10],100 % of control
same,T/C,[11],100 % of control
CCN(CC)CCCC(C)N(C)CC(C)CCC1=C(C)CCCC1(C)C (stereo unspecified),T/C,"dose: 12.5 mg/kg/injection, schedule: Q01DX005 (ip), vehicle: saline",97 % of control
same,T/C,"dose: 25.0 mg/kg/injection, schedule: Q01DX005 (ip), vehicle: saline",101 % of control
same,T/C,[9],104 % of control
Cc1ccc(S(=O)(=O)OCCN(CCOS(=O)(=O)c2ccc(C)cc2)c2ccc(F)cc2)cc1,T/C,"dose: 0.63 mg/kg/injection, schedule: Q01DX009 (ip), vehicle: other",104 % of control
same,T/C,"dose: 1.25 mg/kg/injection, schedule: Q01DX009 (ip), vehicle: other",118 % of control
same,T/C,"dose: 5.0 mg/kg/injection, schedule: Q01DX009 (ip), vehicle: other",150 % of control
CCN(CC)Cc1cc(N)cc(N=Nc2ccc3c(c2)c2ccccc2n3CC)c1O,T/C,"dose: 50.0 mg/kg/injection, schedule: Q01DX009 (ip), vehicle: saline with Tween-80",97 % of control
same,T/C,[12],108 % of control
same,T/C,[13],105 % of control
CN1CCC(=C2c3ccccc3CC(O)c3sccc32)CC1 (stereo unspecified),T/C,[14],94 % of control
same,T/C,[15],98 % of control
OCC1OC(Oc2ncccn2)C(O)C1O (stereo unspecified),T/C,[9],97 % of control
same,T/C,"dose: 50.0 mg/kg/injection, schedule: Q01DX005 (ip), vehicle: suspension in saline",99 % of control
same,T/C,[10],99 % of control
same,T/C,"dose: 100.0 mg/kg/injection, schedule: Q01DX005 (ip), vehicle: suspension in saline",99 % of control
same,T/C,[11],101 % of control
same,T/C,"dose: 200.0 mg/kg/injection, schedule: Q01DX005 (ip), vehicle: suspension in saline",98 % of control
same,T/C,"dose: 400.0 mg/kg/injection, schedule: Q01DX005 (ip), vehicle: saline",104 % of control
same,T/C,"dose: 400.0 mg/kg/injection, schedule: Q01DX005 (ip), vehicle: suspension in saline",99 % of control
Cc1cc2c(C(C)C)c(O)c(O)c(C=NC3CCCCC3)c2c(O)c1-c1c(C)cc2c(C(C)C)c(O)c(O)c(C=NC3CCCCC3)c2c1O,T/C,"dose: 12.5 mg/kg/injection, schedule: Q01DX005 (ip), vehicle: saline with Tween-80",103 % of control
same,T/C,[8],92 % of control
same,T/C,[1],88 % of control
COc1ccc(/C=C/C(C)=N/NC(N)=O)cc1OC,T/C,[1],102 % of control
same,T/C,[2],102 % of control
same,T/C,[3],106 % of control
C[n+]1c(C2(C)CCCO2)sc2ccccc21 (stereo unspecified),T/C,[16],103 % of control
O=C(Nc1ccc([N+](=O)[O-])cc1)OCCI,T/C,[14],101 % of control
same,T/C,[15],92 % of control
same,T/C,"dose: 400.0 mg/kg/injection, schedule: Q04DX003 (ip), vehicle: saline with Tween-80",92 % of control
OC1(c2ccc(Cl)cc2)c2ccccc2COc2ccccc21 (stereo unspecified),T/C,"dose: 100.0 mg/kg/injection, schedule: Q01DX001 (ip), vehicle: Klucel (hydroxypropylcellulose) (HPC)",102 % of control
same,T/C,"dose: 200.0 mg/kg/injection, schedule: Q01DX001 (ip), vehicle: Klucel (hydroxypropylcellulose) (HPC)",100 % of control
same,T/C,"dose: 400.0 mg/kg/injection, schedule: Q01DX001 (ip), vehicle: Klucel (hydroxypropylcellulose) (HPC)",100 % of control
CCCCNC(=O)OCCN(C)CCOC(=O)NCCCC,T/C,[16],107 % of control
same,T/C,"dose: 120.0 mg/kg/injection, schedule: Q01DX005 (ip), vehicle: saline",101 % of control
O=[N+]([O-])c1ccc(/C=N\N=C\c2ccco2)cc1,T/C,[12],90 % of control
same,T/C,[13],100 % of control
same,T/C,"dose: 400.0 mg/kg/injection, schedule: Q01DX009 (ip), vehicle: saline with Tween-80",90 % of control
Cc1ccc2nc3c(nc2c1)n(-c1ccccc1)c(=O)n3-c1cccc(Br)c1,T/C,[1],88 % of control
same,T/C,[2],91 % of control
same,T/C,[3],100 % of control
CC1=CC2OC3CC4OC(=O)/C=C/C=C/C(C(C)O)OCC(O)/C(C)=C/C(=O)OCC2(CC1O)C4(C)C31CO1 (stereo unspecified),T/C,"dose: 1.25 mg/kg/injection, schedule: Q01DX005 (ip), vehicle: saline + alcohol",163 % of control
same,T/C,"dose: 2.5 mg/kg/injection, schedule: Q01DX005 (ip), vehicle: saline + alcohol",156 % of control and 224 % of control
same,T/C,"dose: 5.0 mg/kg/injection, schedule: Q01DX005 (ip), vehicle: saline + alcohol",198 % of control and 243 % of control
O=C1CCCC(Br)c2ccccc21 (stereo unspecified),T/C,"dose: 100.0 mg/kg/injection, schedule: Q01DX009 (ip), vehicle: distilled water + Tween-80 + alcohol",112 % of control
same,T/C,"dose: 200.0 mg/kg/injection, schedule: Q01DX009 (ip), vehicle: distilled water + Tween-80 + alcohol",115 % of control
same,T/C,"dose: 400.0 mg/kg/injection, schedule: Q01DX009 (ip), vehicle: distilled water + Tween-80 + alcohol",106 % of control
CC(C)Cn1c(Cl)c(C(=O)O)c2ccccc21,T/C,"dose: 100.0 mg/kg/injection, schedule: Q04DX002 (ip), vehicle: Klucel (hydroxypropylcellulose) (HPC)",92 % of control
same,T/C,"dose: 200.0 mg/kg/injection, schedule: Q04DX002 (ip), vehicle: Klucel (hydroxypropylcellulose) (HPC)",88 % of control
CCC(c1ccccc1)c1cc2c(cc1OC(C)=O)OCO2 (stereo unspecified),T/C,[1],104 % of control
same,T/C,[2],107 % of control
same,T/C,[3],102 % of control
C[N+](C)(Cc1ccc(Br)cc1)C1c2ccccc2-c2ccccc21,T/C,[6],107 % of control
same,T/C,[7],108 % of control
same,T/C,[4],115 % of control and 98 % of control
CC12Cc3cn[nH]c3CC1CCC1C2CCC2(C)C1CCC2(C)O (stereo unspecified),T/C,"dose: 100.0 mg/kg/injection, schedule: Q04DX002 (ip), vehicle: saline",98 % of control
same,T/C,"dose: 200.0 mg/kg/injection, schedule: Q04DX002 (ip), vehicle: saline",100 % of control
same,T/C,"dose: 400.0 mg/kg/injection, schedule: Q04DX002 (ip), vehicle: saline",97 % of control
O=C(O)c1cc(-c2ccc(Cl)cc2)nc2cc(Cl)ccc12,T/C,[1],98 % of control
same,T/C,[2],100 % of control
O=C1C=CC2(CCC23C=C(Br)C(=O)O3)O1 (stereo unspecified),T/C,"dose: 5.0 mg/kg/injection, schedule: Q01DX009 (ip), vehicle: Klucel (hydroxypropylcellulose) (HPC)",102 % of control
same,T/C,"dose: 10.0 mg/kg/injection, schedule: Q01DX009 (ip), vehicle: Klucel (hydroxypropylcellulose) (HPC)",108 % of control
same,T/C,"dose: 20.0 mg/kg/injection, schedule: Q01DX009 (ip), vehicle: Klucel (hydroxypropylcellulose) (HPC)",106 % of control
c1ccc(CSCCSCc2ccccn2)nc1,T/C,"dose: 50.0 mg/kg/injection, schedule: Q01DX005 (ip), vehicle: Klucel (hydroxypropylcellulose) (HPC)",95 % of control
same,T/C,"dose: 100.0 mg/kg/injection, schedule: Q01DX005 (ip), vehicle: Klucel (hydroxypropylcellulose) (HPC)",109 % of control
same,T/C,"dose: 200.0 mg/kg/injection, schedule: Q01DX005 (ip), vehicle: Klucel (hydroxypropylcellulose) (HPC)",103 % of control
